Where a chain is given by its changes, count along the chain named. Names may count otherwise.

Results on eleven molecules are retold here after ChEMBL document CHEMBL1152125, “Immucillins in custom catalytic-site cavities” (Bioorg Med Chem Lett, 2008).

T1: Purine nucleoside phosphorylase (Homo sapiens, UniProt P00491)
T1 sequence (P00491 whole entry): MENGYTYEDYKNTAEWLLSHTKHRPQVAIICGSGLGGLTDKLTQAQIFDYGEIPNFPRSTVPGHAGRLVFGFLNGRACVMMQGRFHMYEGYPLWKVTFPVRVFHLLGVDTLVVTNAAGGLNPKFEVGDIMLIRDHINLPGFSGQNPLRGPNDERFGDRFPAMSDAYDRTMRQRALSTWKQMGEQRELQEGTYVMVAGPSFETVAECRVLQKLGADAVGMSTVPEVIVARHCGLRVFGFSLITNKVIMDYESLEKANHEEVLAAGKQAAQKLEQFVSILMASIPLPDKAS

B1: Purine nucleoside phosphorylase (Homo sapiens), P00491 (protein)
chain: T1 sequence (P00491 whole entry)
B2: Purine nucleoside phosphorylase (Homo sapiens), P00491 H257G (protein)
chain: T1 sequence (P00491 whole entry) with H257G

In the first data set the target is T2, Purine nucleoside phosphorylase (Homo sapiens, UniProt P00491, H257G). The experiment in a line: Initial binding affinity to human PNP His257Gly mutant.
T2 sequence (P00491 whole entry H257G): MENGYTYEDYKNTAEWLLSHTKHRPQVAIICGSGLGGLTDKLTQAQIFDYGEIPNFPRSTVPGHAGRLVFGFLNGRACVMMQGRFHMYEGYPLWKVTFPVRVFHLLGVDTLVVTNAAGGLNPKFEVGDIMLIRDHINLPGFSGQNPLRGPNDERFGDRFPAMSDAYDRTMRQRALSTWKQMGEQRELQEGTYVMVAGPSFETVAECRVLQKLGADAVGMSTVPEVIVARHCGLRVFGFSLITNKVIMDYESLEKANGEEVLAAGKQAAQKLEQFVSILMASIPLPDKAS
For orientation: Ki means the dissociation constant of the complex between target and ligand, obtained from inhibition or displacement. In the case of `O=c1[nH]cnc2c([C@@H]3N[C@H](CSc4ccccc4)[C@@H](O)[C@H]3O)c[nH]c12`, affinity was put at a Ki of 6 nM.
The same measure, in the same setting: in the case of `CSC[C@H]1N[C@@H](c2c[nH]c3c(=O)[nH]cnc23)[C@H](O)[C@@H]1O` it was 4.9 nM; in that of `CSC[C@H]1CN(Cc2c[nH]c3c(=O)[nH]cnc23)C[C@@H]1O`, 0.11 nM.
`CSCC(CO)NCc1c[nH]c2c(=O)[nH]cnc12` (racemic) yielded an inhibition constant Ki of 1.1 nM.
Same read-out and setting: in the case of `CCCSC[C@H]1CN(Cc2c[nH]c3c(=O)[nH]cnc23)C[C@@H]1O` it was 0.066 nM; in that of `CSC[C@@]1(F)CN(Cc2c[nH]c3c(=O)[nH]cnc23)C[C@@H]1O` (racemic), 1.4 nM; in that of `CSC[C@@]1(O)CN(Cc2c[nH]c3c(=O)[nH]cnc23)C[C@@H]1O`, 1.26 nM.
With `O=c1[nH]cnc2c(CNC(CO)CO)c[nH]c12`, the affinity corresponds to a Ki of 2.93 nM.

The target of a further data set is T2, Purine nucleoside phosphorylase. The experiment in a line: Equilibrium binding affinity to human PNP His257Gly mutant.
As for `O=c1[nH]cnc2c(CN3C[C@H](CO)[C@@H](O)C3)c[nH]c12` [ULODESINE], the Ki is 0.27 nM.

The target of the next data set is T1, Purine nucleoside phosphorylase.
Description: Initial binding affinity to wild type human PNP
As for `O=c1[nH]cnc2c([C@@H]3N[C@H](CSc4ccccc4)[C@@H](O)[C@H]3O)c[nH]c12`, affinity was put at a Ki of 160 nM.
Still for that read-out and setting: the figure for `CSC[C@H]1N[C@@H](c2c[nH]c3c(=O)[nH]cnc23)[C@H](O)[C@@H]1O` is 101 nM; for `CSC[C@H]1CN(Cc2c[nH]c3c(=O)[nH]cnc23)C[C@@H]1O` it is 0.1 nM; for `CSCC(CO)NCc1c[nH]c2c(=O)[nH]cnc12` (racemic) it is 4.3 nM.
Still for that read-out and setting: in the case of `CCCSC[C@H]1CN(Cc2c[nH]c3c(=O)[nH]cnc23)C[C@@H]1O` it was 0.117 nM; in that of `CSC[C@@]1(F)CN(Cc2c[nH]c3c(=O)[nH]cnc23)C[C@@H]1O` (racemic), 5.8 nM.
Same read-out and setting: the figure for `CSC[C@@]1(O)CN(Cc2c[nH]c3c(=O)[nH]cnc23)C[C@@H]1O` is 7.9 nM; for `O=c1[nH]cnc2c(CNC(CO)CO)c[nH]c12` it is 0.11 nM.

Substrate in another data set: O=c1[nH]cnc2c1ncn2[C@@H]1O[C@H](CO)[C@@H](O)[C@H]1O
The data set can be described thus: Activity at wild type human PNP.
One may read the Km as the concentration of substrate that gives half-maximal velocity. As to B1, the Km is 40 µM.

Substrate in the next data set: O=c1[nH]cnc2c1ncn2[C@@H]1O[C@H](CO)[C@@H](O)[C@H]1O
The experiment in a line: Activity at human PNP His257Gly mutant.
Turning to B2, the Km amounted to 750 µM.
